Results as given in patent US20100035755A1, “METHOD OF CONTROLLING WEEDS IN A TURF GRASS BY USING SULFONYLUREA COMPOUNDS” (Moghu Research Center Ltd., priority 2008, published 2010).

Assays:
Portulaca oleracea = assay: Weed spectrum, greenhouse pot test; type: in vivo; conditions: two weeks after application
Summary of the method: (§1)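 Scores reflect visual weed control two weeks after spraying, where 0 means no effect and 100 complete control. Plants grew in a greenhouse at 25˜30° C by day and 15˜25° C by night, with treatment either at sowing or at three-leaf stage.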

Cyperus amuricus = assay: Weed spectrum, greenhouse pot test; type: in vivo; conditions: two weeks after application
Summary of the method: as §1

Kummerowia striata = assay: Weed spectrum, greenhouse pot test; type: in vivo; conditions: two weeks after application
Summary of the method: as §1

Trifolium repens = assay: Weed spectrum, greenhouse pot test; type: in vivo; conditions: two weeks after application
Summary of the method: as §1

Poa annua = assay: Weed spectrum, greenhouse pot test; type: in vivo; conditions: for efficacy (0-100 scale): two weeks after application
Summary of the method: as §1

Viola arvensis = assay: Actual field condition test of Example 2 (turf grass field); type: in vivo; conditions: 50 g ai/ha
Protocol: The test chemical of the Example 2 was applied to a turf grass field, in which Viola arvensis as a representative hard-to-control perennial weed is thriving predominantly, to evaluate a weed control effect of the compound. The experiment was carried out from May to June, 2007 in the turf grass field within Korea Research Institute of Bioscience and Biotechnology (52, Ueun-dong, Yusong-gu, Daejon, South Korea). Fourteen days after the chemical application, the turf grass was cut once.

cool season turfgrass = assay: Turf grass selectivity, summary for cool season turfgrass; type: in vivo; conditions: 25 g ai/ha or more
Source text: Turf mats of Zoysia grass, bentgrass, Kentucky bluegrass, or perennial rye grass known as cool season turfgrass or western grass were purchased and cut into a piece having 10 cm×20 cm size. Then, each piece was transplanted in a rectangular plastic pot (surface area of 300 cm^2) in which sandy loam and mixed top soil (Boo-Nong Top Soil No. 3, for horticultural use) are filled in 1:1 ratio. After the transplantation, the grasses were cut once a week to maintain the blade height at 0.5-1.0 cm and cultivated for one month in a green house of which temperature was kept at 25˜30° C. for daytime and 15˜25° C. for nighttime, respectively. Then, the ‘test chemical’ of the above Examples 1 and 2 or ‘control chemical’ was applied thereto in an amount of 400, 200, 100, 50, 25, 12, 6, 3 g ai/ha. As a “control chemical”, pyrazolsulfuron ethyl wettable agent (manufactured by Dongbu Fine Chemicals; herein after, referred to as ‘control chemical No. 1’) and flazasulfuron (manufactured by Dongbu HiTek; herein after, referred to as ‘control chemical No. 2’), both sulfonylurea herbicides for a turf grass, were used. Application was carried out by using a track sprayer (R&D Sprayer, USA) equipped with Teejet 8002 nozzle (Spraying Systems Co., USA), and the application amount was adjusted to 2,000 L/ha, which is a typical application amount for a golf course in Korea. […]

Zoysia japonica = assay: Actual field condition test of Example 1 (golf course); type: in vivo; conditions: 100 g ai/ha, twenty days after application
Protocol: (§2) The test chemical of the Example 1 was applied to a turf grass field, in which Digitaria sanguinalis as a representative summer-time poaceae weed and Kyllinga brevifolia as a representative hard-to-control perennial cyperaceae weed are thriving predominantly, to evaluate weed control effect of the compound. The experiment was carried out from May to July, 2008 in the Dae-duk Research Park golf course (Doryong-dong, Yusong-gu, Daejon, South Korea). At the time of the chemical application, Digitaria sanguinalis was at about 4-leaf stage and Kyllinga brevifolia was at growth period.

Kentucky bluegrass = assay: as above; type: in vivo, Poa pratensis; conditions: 100 g ai/ha, twenty days after application
Protocol: as §2

COc1nc(C)nc(NC(=O)NS(=O)(=O)c2cscc2C2(CF)OCCO2)n1 [Example 2, 3-(2-fluoromethyl-1,3-dioxalan-2-yl)-N-[(4-methoxy-6-methyltriazin-2-yl)aminocarbonyl]4-thiophene sulfonamide]
20: efficacy (0-100 scale) (Cyperus amuricus; Pre-emergence, 12 g ai/ha) | Effect on Viola arvensis (Viola arvensis; After 7 days)
90: efficacy (0-100 scale) (Portulaca oleracea; Post-emergence, 25 g ai/ha) | efficacy (0-100 scale) (Portulaca oleracea; Pre-emergence, 12 g ai/ha) | efficacy (0-100 scale) (Portulaca oleracea; Pre-emergence, 25 g ai/ha) | efficacy (0-100 scale) (Kummerowia striata; Pre-emergence, 25 g ai/ha) | efficacy (0-100 scale) (Kummerowia striata; Pre-emergence, 50 g ai/ha) | efficacy (0-100 scale) (Trifolium repens; Pre-emergence, 100 g ai/ha) | efficacy (0-100 scale) (Poa annua; Post-emergence, 50 g ai/ha) | efficacy (0-100 scale) (Poa annua; Pre-emergence, 50 g ai/ha) | efficacy (0-100 scale) (Poa annua; Pre-emergence, 100 g ai/ha)
at least 90%: weed controlled (Poa annua; 50 to 100 g/ha)
70: efficacy (0-100 scale) (Portulaca oleracea; Post-emergence, 12 g ai/ha) | efficacy (0-100 scale) (Kummerowia striata; Post-emergence, 12 g ai/ha) | efficacy (0-100 scale) (Kummerowia striata; Post-emergence, 25 g ai/ha) | efficacy (0-100 scale) (Kummerowia striata; Pre-emergence, 12 g ai/ha) | efficacy (0-100 scale) (Trifolium repens; Pre-emergence, 50 g ai/ha)
60: efficacy (0-100 scale) (Cyperus amuricus; Pre-emergence, 100 g ai/ha) | efficacy (0-100 scale) (Trifolium repens; Post-emergence, 50 g ai/ha) | efficacy (0-100 scale) (Trifolium repens; Post-emergence, 100 g ai/ha) | efficacy (0-100 scale) (Trifolium repens; Pre-emergence, 25 g ai/ha) | efficacy (0-100 scale) (Poa annua; Post-emergence, 12 g ai/ha) | efficacy (0-100 scale) (Poa annua; Pre-emergence, 25 g ai/ha)
50: efficacy (0-100 scale) (Cyperus amuricus; Post-emergence, 50 g ai/ha) | efficacy (0-100 scale) (Cyperus amuricus; Post-emergence, 100 g ai/ha) | efficacy (0-100 scale) (Cyperus amuricus; Pre-emergence, 50 g ai/ha) | efficacy (0-100 scale) (Trifolium repens; Post-emergence, 25 g ai/ha) | efficacy (0-100 scale) (Poa annua; Pre-emergence, 12 g ai/ha) | Effect on Viola arvensis (Viola arvensis; After 14 days)
100: efficacy (0-100 scale) (Portulaca oleracea; Post-emergence, 50 g ai/ha) | efficacy (0-100 scale) (Portulaca oleracea; Post-emergence, 100 g ai/ha) | efficacy (0-100 scale) (Portulaca oleracea; Pre-emergence, 50 g ai/ha) | efficacy (0-100 scale) (Portulaca oleracea; Pre-emergence, 100 g ai/ha) | efficacy (0-100 scale) (Kummerowia striata; Post-emergence, 50 g ai/ha) | efficacy (0-100 scale) (Kummerowia striata; Post-emergence, 100 g ai/ha) | efficacy (0-100 scale) (Kummerowia striata; Pre-emergence, 100 g ai/ha)
80: efficacy (0-100 scale) (Poa annua; Post-emergence, 25 g ai/ha)
completely withered: phytotoxicity to cool season turfgrass (cool season turfgrass)
30: efficacy (0-100 scale) (Cyperus amuricus; Post-emergence, 12 g ai/ha) | efficacy (0-100 scale) (Cyperus amuricus; Pre-emergence, 25 g ai/ha) | efficacy (0-100 scale) (Trifolium repens; Pre-emergence, 12 g ai/ha)
95: efficacy (0-100 scale) (Poa annua; Post-emergence, 100 g ai/ha)
40: efficacy (0-100 scale) (Cyperus amuricus; Post-emergence, 25 g ai/ha) | efficacy (0-100 scale) (Trifolium repens; Post-emergence, 12 g ai/ha)

CCOC(=O)c1cnn(C)c1S(=O)(=O)NC(=O)Nc1nc(OC)cc(OC)n1 [Control chemical No. 1, Pyrazosulfuron ethyl, reference compound]
10: efficacy (0-100 scale) (Poa annua; Post-emergence, 100 g ai/ha) | efficacy (0-100 scale) (Poa annua; Pre-emergence, 25 g ai/ha)
30: efficacy (0-100 scale) (Portulaca oleracea; Pre-emergence, 25 g ai/ha) | efficacy (0-100 scale) (Kummerowia striata; Post-emergence, 25 g ai/ha) | efficacy (0-100 scale) (Kummerowia striata; Pre-emergence, 12 g ai/ha)
40: efficacy (0-100 scale) (Portulaca oleracea; Post-emergence, 25 g ai/ha) | efficacy (0-100 scale) (Kummerowia striata; Post-emergence, 50 g ai/ha) | efficacy (0-100 scale) (Trifolium repens; Pre-emergence, 12 g ai/ha)
50: efficacy (0-100 scale) (Cyperus amuricus; Post-emergence, 12 g ai/ha) | efficacy (0-100 scale) (Kummerowia striata; Post-emergence, 100 g ai/ha) | efficacy (0-100 scale) (Kummerowia striata; Pre-emergence, 25 g ai/ha) | efficacy (0-100 scale) (Kummerowia striata; Pre-emergence, 50 g ai/ha)
100: efficacy (0-100 scale) (Portulaca oleracea; Pre-emergence, 100 g ai/ha) | efficacy (0-100 scale) (Cyperus amuricus; Post-emergence, 100 g ai/ha) | efficacy (0-100 scale) (Cyperus amuricus; Pre-emergence, 50 g ai/ha) | efficacy (0-100 scale) (Cyperus amuricus; Pre-emergence, 100 g ai/ha)
0: phytotoxicity in actual field condition (Zoysia japonica) | phytotoxicity in actual field condition (Kentucky bluegrass) | efficacy (0-100 scale) (Kummerowia striata; Post-emergence, 12 g ai/ha) | efficacy (0-100 scale) (Poa annua; Post-emergence, 12 g ai/ha) | efficacy (0-100 scale) (Poa annua; Post-emergence, 25 g ai/ha) | efficacy (0-100 scale) (Poa annua; Post-emergence, 50 g ai/ha) | efficacy (0-100 scale) (Poa annua; Pre-emergence, 12 g ai/ha)
60: efficacy (0-100 scale) (Portulaca oleracea; Post-emergence, 50 g ai/ha) | efficacy (0-100 scale) (Trifolium repens; Post-emergence, 25 g ai/ha) | efficacy (0-100 scale) (Trifolium repens; Pre-emergence, 25 g ai/ha)
20: efficacy (0-100 scale) (Portulaca oleracea; Post-emergence, 12 g ai/ha) | efficacy (0-100 scale) (Portulaca oleracea; Pre-emergence, 12 g ai/ha) | efficacy (0-100 scale) (Trifolium repens; Post-emergence, 12 g ai/ha) | efficacy (0-100 scale) (Poa annua; Pre-emergence, 50 g ai/ha) | efficacy (0-100 scale) (Poa annua; Pre-emergence, 100 g ai/ha)
70: efficacy (0-100 scale) (Portulaca oleracea; Pre-emergence, 50 g ai/ha) | efficacy (0-100 scale) (Cyperus amuricus; Post-emergence, 25 g ai/ha) | efficacy (0-100 scale) (Cyperus amuricus; Pre-emergence, 12 g ai/ha) | efficacy (0-100 scale) (Kummerowia striata; Pre-emergence, 100 g ai/ha) | efficacy (0-100 scale) (Trifolium repens; Post-emergence, 50 g ai/ha) | efficacy (0-100 scale) (Trifolium repens; Pre-emergence, 50 g ai/ha) | efficacy (0-100 scale) (Trifolium repens; Pre-emergence, 100 g ai/ha)
80: efficacy (0-100 scale) (Portulaca oleracea; Post-emergence, 100 g ai/ha) | efficacy (0-100 scale) (Cyperus amuricus; Post-emergence, 50 g ai/ha) | efficacy (0-100 scale) (Cyperus amuricus; Pre-emergence, 25 g ai/ha) | efficacy (0-100 scale) (Trifolium repens; Post-emergence, 100 g ai/ha)
